Patent US20100087407A1, “USE OF AROMATASE INHIBITORS” (priority 2006, published 2010)

Experiments:
endometrium [1] = details: small randomized study of progestogens; cited from earlier work
endometrium [2] = test: Examples 1-3: endometrial thinning with loading dose and maintenance dose; assay type: in vivo, women; details: loading dose on first day, then maintenance dose for 3-6 days, any time of cycle
Procedure: Five different groups of pre-menopausal women are treated based on where there are in the menstrual cycle. Starting days (i.e., the first day of dosing) for the five groups are on Cycle Days 2-5, 6-9, 10-13, 14-17, and 18-21 for Groups 1-5, respectively.
A thin endometrium is defined as having a double-wall thickness not greater than 4 mm on transvaginal ultrasound. […] The following table summarizes the dose day and evaluation times.

[3] = postmenopausal breast cancer; cited from earlier work
endometrium [4] = details: prior to hysteroscopic surgery; cited from earlier work

SMILES | effect on endometrial thickness (endometrium [1]) | further results
CC(=O)O[C@]1(C(C)=O)CC[C@H]2[C@@H]3C=C(Cl)C4=CC(=O)[C@@H]5C[C@@H]5[C@]4(C)[C@H]3CC[C@@]21C [cyproterone acetate] | significant reduction | –
CC(C)(C#N)c1cc(Cn2cncn2)cc(C(C)(C)C#N)c1 [anastrozole] | – | endometrial thinning prior to ablation (endometrium [2]): able to maintain a thin endometrium or to induce adequate thinning
CC(=O)O[C@]1(C(C)=O)CC[C@H]2[C@@H]3C[C@H](C)C4=CC(=O)CC[C@]4(C)[C@H]3CC[C@@]21C [medroxyprogesterone acetate] | no effect | –
CCC1(c2ccc(N)cc2)CCC(=O)NC1=O (stereo not drawn) [aminoglutethimide] | – | patients stopping treatment because of side effects (lethargy, rashes, nausea, fever) [3]: 8-15%
C#C[C@]1(O)CC[C@H]2[C@@H]3CCC4=Cc5oncc5C[C@]4(C)[C@H]3CC[C@@]21C [danazol] | – | endometrial thinning (endometrium [4]): satisfactory results
C#C[C@]1(O)CC[C@H]2[C@@H]3CCC4=CC(=O)CC[C@@H]4[C@H]3CC[C@@]21C [norethisterone] | no effect | –
